Activity calls are given as the source filed them. No cut-off for these calls is given here. Where a SMILES comes first, the peptide text is derived from it. [ ]: non-standard residue; d: D form. Hyp = O=C(O)[C@@H]1C[C@@H](O)CN1

The subject of the assay is Platelet. Kind of assay: Inhibition of type III collagen-induced platelet aggregation in human platelet rich plasma at 1 mM. It counts as functional.

One may read the inhibition as the relative decrease from the control value, in per cent. Regarding `C[C@H](NC(=O)[C@@H]1C[C@@H](O)CN1C(=O)[C@@H](N)CCCCN)C(=O)N[C@@H](CCC(=O)O)C(=O)N1C[C@H](O)C[C@H]1C(=O)N[C@@H](C)C(=O)N1CCC[C@H]1C(=O)N[C@@H](CCCCN)C(=O)O` (H-K[Hyp]AE[Hyp]APK-OH), the inhibition entry was “inactive”. Compound `NCCCC[C@H](NC(=O)[C@@H]1CCCN1C(=O)CNC(=O)[C@@H]1C[C@@H](O)CN1C(=O)[C@H](CCC(=O)O)NC(=O)CNC(=O)[C@@H]1C[C@@H](O)CN1C(=O)[C@@H](N)CCCCN)C(=O)O` (H-K[Hyp]GE[Hyp]GPK-OH) showed an inhibition at 1000 µM of 86.1%. On the same count and under the same terms, the same measure for `C[C@H](NC(=O)[C@@H]1C[C@@H](O)CN1C(=O)[C@H](CCC(=O)O)NC(=O)CNC(=O)[C@@H]1C[C@@H](O)CN1C(=O)[C@@H](N)CCCCN)C(=O)N1CCC[C@H]1C(=O)N[C@@H](CCCCN)C(=O)O` (H-K[Hyp]GE[Hyp]APK-OH): 72.1%. For `NCCCC[C@H](NC(=O)[C@H](CCCCN)NC(=O)[C@@H]1C[C@@H](O)CN1C(=O)[C@@H]1C[C@@H](O)CN1)C(=O)N[C@@H](CCC(=O)O)C(=O)N1CCC[C@H]1C(=O)NCC(=O)NCC(=O)O` (H-[Hyp][Hyp]KKEPGG-OH), the inhibition entry is “inactive”.

The record behind these values is ChEMBL document CHEMBL1158363, “Circular dichroism studies of type III collagen mimetic peptides with anti- or pro-aggregant activities on human platelets” (2009).
